This is an account of results in patent US20180042874A1, “METHOD FOR TREATING OSTEOPOROSIS” (China Medical University, priority 2016, published 2018).

Each structure is given as a SMILES string.

One data set deals with c-Fos. Description: Western blot of MAPK downstream protein c-Fos. The class given is cell-based, mouse. As to conditions: 10 μg/ml co-treated with 100 ng/ml RANKL, 48 hours. On the procedure:
The effect of the compound of formula I on the protein expression of osteoclast MAPKs pathways induced by receptor activator of nuclear factor κB ligand was studied, experiments were performed by using the Western blot method; RAW 264.7 cells were rinsed in ice-cold PBS, cell lysis buffer was added, the components of the buffer solution included: 10 mM 4-(2-hydroxyethyl)-1-piperazineethanesulfonic acid (HEPES), 1.5 mM MgCl2, 0.5 mM dithiothreitol (DTT), 0.5 μg/ml leupeptin and 6.4% Nonidet P-40, reacted on ice for 15 minutes. The cells were scraped off with a spatula, collected into a 1.5 ml centrifuge tube, the cells were thoroughly broken by using a shaker; centrifuged at 12,000 rpm, 4° C. for 10 minutes; supernatant was added into a new 1.5 ml centrifuge tube; boiled with IX sodiumdodecyl sulfate (SDS) sample buffer, followed by electrophoresis using 10 to 12% SDS-PAGE. […] The transfer membrane was rinsed again and the membrane loaded with chemical luminescence reagent ECL was allowed to react with a photosensitive sheet in a darkroom for a suitable period of time, the photosensitive sheet then reacted with the developer. After the photosensitive sheet was exposed to light a band-shaped antibody-binding proteins was observed, quantified by the density of the bands. […]

Data set [1] is described as follows: Body weight in ovariectomized osteoporosis rat model. The class given is in vivo, Sprague-Dawley (SD) female rats. As to conditions: rat, in vivo. On the procedure: Inducing osteoporosis animal models and experimental methods: • 1. 6-month old Sprague-Dawley (SD) female rats were purchased; • 2. These rats were divided into 7 groups, of which Group 1 was given pseudo-surgery, Group 2-7 underwent bilateral ovariectomies; • 3. On the 6th day after surgery, 1 mL/kg of vehicle alone was given orally to Group 1, Group 2 daily, Zoledronic Acid and Prolia were administered weekly by injections to Group 3, Group 4, respectively; 1, 3, 10 mg/kg of the compound of formula I was given orally every 3 days to Groups 5-7, respectively; • 4. Body weight and bone density were measured weekly, blood was drawn until the 118th day; • 5. Rats were then sacrificed to obtain kidneys, livers and rat tibia; • 6. Data were consolidated and processed.

On to `CNC(=O)N[C@]1(C)CCC[C@@]2(C)C3CC[C@@]4(C)C[C@]3(CCC21)CC4=O` (single isomer, unassigned; ent-16) [compound of formula I, ent-16-oxobeyeran-19-N-methylureido], for which the c-Fos protein expression entry in the data set on c-Fos is “significantly reduced”. Moreover, in data set [1], the “effect on body weight” value is listed as “different from commercially available drugs”.
